Article PMC12696353, “Structural insights into endogenous agonist selectivity of aminergic receptors from the octopamine β2 receptor” (PNAS Nexus, 2025)
Where a chain is given by its changes, count along the chain named. Entries after “also recorded” stand apart in the source; their conditions may differ.

Assays:
[1] = molecular target: T1, is-octβ2R T60^1.41P mutant (Ixodes scapularis, UniProt A0ACM8E5E8); assay: TGFα shedding assay, amitraz-resistant mutant T60^1.41P; format: cell-based; details: Table S4
T1 sequence (A0ACM8E5E8 1-384 T39P): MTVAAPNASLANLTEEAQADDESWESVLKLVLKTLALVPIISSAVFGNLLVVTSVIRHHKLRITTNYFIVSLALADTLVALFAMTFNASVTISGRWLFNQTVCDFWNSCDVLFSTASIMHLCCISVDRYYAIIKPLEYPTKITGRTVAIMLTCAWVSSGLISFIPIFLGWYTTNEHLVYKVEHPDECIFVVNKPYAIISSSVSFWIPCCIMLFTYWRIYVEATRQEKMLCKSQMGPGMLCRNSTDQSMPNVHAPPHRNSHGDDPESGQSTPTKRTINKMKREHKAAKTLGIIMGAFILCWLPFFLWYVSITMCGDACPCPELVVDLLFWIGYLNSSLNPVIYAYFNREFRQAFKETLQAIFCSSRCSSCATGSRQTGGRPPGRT
Description: (§1) The TGFα shedding assay was performed as previously described ([28]). […] The cells were transfected using lipofectamine 2000 with plasmids encoding alkaline phosphatase–tagged TGFα (AP-TGFα) (2.5 ng/mL), is-octβ2Rs (1 ng/mL), and Gαq/s (0.5 ng/mL). After 24 h, the cells were washed with phosphate-buffered saline and resuspended in Hank's balanced salt solution (HBSS) (supplemented with 5 mM HEPES [pH 7.4]). The cells (90 μL/well) were plated in a 96-well plate and incubated with 10 μL of HBSS solution containing various concentrations of compounds for 1 h at 37 °C. Following centrifugation (200 × g, 2 min), 80 μL of the supernatant was transferred to a separate 96-well plate. Subsequently, 80 µL of 2× para-nitrophenyl phosphate (pNPP) buffer (containing 10 mM pNPP in 40 mM Tris–HCl [pH 9.5], 40 mM NaCl, and 10 mM MgCl2) was added to both the supernatant and cell-containing plates. The optical density at 405 nm of both plates was measured before and after a 1 h incubation at room temperature using a microplate reader (SpectraMax iD3, Molecular Devices, San Jose, CA, United States). AP-TGFα release was calculated using the following formulas:
(§2) ΔOD405=OD450(1h)−OD405(0h)AP−TGFαinsupernatant(%)=(ΔOD405Sup/[ΔOD450Sup+ΔOD405Cell])×125AP−TGFαrelease(%)=AP−TGFαinsupernatantunderastimulatedcondition(%)−AP−TGFαinsupernatantunderavehicle−treatedcondition
(§3) where OD405 (0 h) and […] represent the OD405 before and after a 1 h incubation, respectively, and OD405Sup and OD405Cell represent the OD405 of supernatant and cell plates, respectively. For all pharmacological analyses, nonlinear regression curve fitting was performed with a 3-parameter sigmoid model (Hill coefficient = 1) using Prism 8 (GraphPad Software, La Jolla, CA, United States).

[2] = molecular target: T2, is-octβ2R I61^1.42F mutant (Ixodes scapularis, UniProt A0ACM8E5E8, I40F); assay: TGFα shedding assay, amitraz-resistant mutant I61^1.42F; format: cell-based; details: Table S4
T2 sequence (A0ACM8E5E8 1-384 I40F): T1 sequence (A0ACM8E5E8 1-384 T39P) with P39T, I40F
Description: as §1, §2, §3

[3] = molecular target: T3, is-octβ2R I62^1.43T mutant (Ixodes scapularis, UniProt A0ACM8E5E8, I41T); assay: TGFα shedding assay, amitraz-resistant mutant I62^1.43T; format: cell-based; details: Table S4
T3 sequence (A0ACM8E5E8 1-384 I41T): T1 sequence (A0ACM8E5E8 1-384 T39P) with P39T, I41T
Description: as §1, §2, §3

[4] = molecular target: T4, is-octβ2R Y215^5.58H mutant (Ixodes scapularis, UniProt A0ACM8E5E8, Y215H); assay: TGFα shedding assay, amitraz-resistant mutant Y215^5.58H; format: cell-based
T4 sequence (A0ACM8E5E8 1-384 Y215H): T1 sequence (A0ACM8E5E8 1-384 T39P) with P39T, Y215H
Description: as §1, §2, §3

[5] = test system: is-octβ2R Y215^5.58H mutant; assay: as above; format: cell-based, Ixodes scapularis; details: versus wild type
Description: as §1, §2, §3

[6] = test system: is-octβ2R D110^3.32A mutant; assay: TGFα shedding assay, mutant D110^3.32A; format: cell-based, Ixodes scapularis; details: Table S6
Description: as §1
(§4) ΔOD405=OD450(1h)−OD405(0h)AP−TGFαinsupernatant(%)=(ΔOD405Sup/[ΔOD450Sup+ΔOD405Cell])×125AP−TGFαrelease(%)=AP−TGFαinsupernatantunderastimulatedcondition(%)−AP−TGFαinsupernatantunderavehicle−treatedcondition […]

[7] = test system: is-octβ2R I118^3.40A mutant; assay: TGFα shedding assay, mutant I118^3.40A; format: cell-based, Ixodes scapularis; details: Table S6
Description: as §1, §4

[8] = test system: is-octβ2R Y195^5.38A mutant; assay: TGFα shedding assay, mutant Y195^5.38A; format: cell-based, Ixodes scapularis; details: Table S6
Description: as §1, §4

[9] = test system: is-octβ2R S199^5.42A mutant; assay: TGFα shedding assay, mutant S199^5.42A; format: cell-based, Ixodes scapularis
Description: as §1, §2, §3

[10] = test system: is-octβ2R W300^6.48A mutant; assay: TGFα shedding assay, mutant W300^6.48A; format: cell-based, Ixodes scapularis; details: Table S6
Description: as §1, §4

[11] = test system: is-octβ2R Y307^6.55A mutant; assay: TGFα shedding assay, mutant Y307^6.55A; format: cell-based, Ixodes scapularis; details: Table S6
Description: as §1, §4

| SMILES | EC50 [1] [nM] | EC50 [2] [nM] | EC50 [3] [nM] | EC50 [4] [nM] | change of EC50 by the Y215^5.58H mutation [5] | reduction of maximal response (Emax) by the Y215^5.58H mutation [5] [%] | logEC50 [6] | logEC50 [7] | logEC50 [8] | logEC50 ([9]; Table S6) | logEC50 [10] | logEC50 [11] | logEC50 ([9]; Table S6, listed as octopamine) |
| --- | --- | --- | --- | --- | --- | --- | --- | --- | --- | --- | --- | --- | --- |
| CN/C=N/c1ccc(C)cc1C [DPMF, N-2,4-dimethylphenyl-N′-methylformamidine] | 7.94 | 7.94 | 2 | 6.31 | unaffected | ~50 | no activity | no activity | no activity | signal observed only at 10-5 M; also recorded: signal observed only at 10^−5 M | no activity | no activity |  |
| NCC(O)c1ccc(O)cc1 (stereo not shown) [Octopamine, octopamine] | 10 | 7.94 | 5.01 | 15.8 | 4 fold | ~50 | no activity | no activity | no activity | signal observed only at 10-5 M | no activity | no activity | signal observed only at 10^−5 M |
